From the NIST ThermoML archive (doi:10.1021/acs.jced.9b00406)
± gives the expanded uncertainty stated by the source.

Columns and labels:
[1] = Molar enthalpy of transition or fusion; conditions: Crystal; DSC
[2] = Crystal; DSC

Cc1cnc(C(=O)O)cn1 [2-methylpyrazine-5-carboxylic acid]
Molar enthalpy of transition or fusion [1]: 6.84 ± 0.237 kcal/mol
Triple point temperature [2]: 440.35 ± 1.2 K
